Source: publication PMC7386655, “Spontaneous mutations that confer resistance to 2-deoxyglucose act through Hxk2 and Snf1 pathways to regulate gene expression and HXT endocytosis” (PLoS Genetics, 2020)

Target: T1, Hxk2 (Saccharomyces cerevisiae, UniProt P04807)
T1 construct: expressed from low-copy plasmid in hxk1Δ hxk2Δ glk1Δ yeast; whole cell extract; probably C-terminal 3xV5 tag
T1 sequence (P04807 2-486): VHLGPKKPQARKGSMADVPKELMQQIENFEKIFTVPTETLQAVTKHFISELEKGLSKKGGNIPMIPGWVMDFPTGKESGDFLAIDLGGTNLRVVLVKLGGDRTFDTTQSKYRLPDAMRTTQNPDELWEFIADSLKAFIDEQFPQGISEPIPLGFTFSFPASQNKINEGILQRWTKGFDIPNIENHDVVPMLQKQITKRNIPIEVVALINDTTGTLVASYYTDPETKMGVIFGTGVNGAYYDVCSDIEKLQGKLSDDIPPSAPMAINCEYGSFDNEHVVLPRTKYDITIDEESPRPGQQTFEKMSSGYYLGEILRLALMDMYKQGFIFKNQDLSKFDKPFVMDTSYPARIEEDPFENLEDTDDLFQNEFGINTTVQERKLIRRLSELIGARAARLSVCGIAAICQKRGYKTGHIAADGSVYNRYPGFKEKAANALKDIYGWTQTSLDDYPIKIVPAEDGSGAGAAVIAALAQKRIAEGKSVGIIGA
Test: G6PDH-coupled NADPH absorbance at […] nm, double reciprocal plot
Assay type: biochemical
Details: read-out: Km Glucose; 1 mM ATP, 10 mM MgCl2, pH 7.4; whole cell extract

OC[C@H]1OC(O)[C@H](O)[C@@H](O)[C@@H]1O (stereo partly shown) [glucose]
Km: 190 µM
